Measured values from patent US20260356819A1, “OXOISOINDOLINYL-SUBSTITUTED […] DERIVATIVE AND USE THEREOF” (GLUETACS THERAPEUTICS (SHANGHAI) CO., LTD., priority 2023, published 2026).

Assays:
Format in all cases: cell-based
Details in all cases: compounds at 50 nM and 500 nM
IKZF2 = biological target: T1, IKZF2 (Homo sapiens, UniProt Q96SW2+Q9UKS7); test: Western blot degradation of IKZF2 in hPBMCs (24 h)
T1 construct: The supernatant was aspirated as the extracted total cell protein; endogenous in cells; host or cells: human peripheral blood mononuclear cells (hPBMCs)
T1 sequence (Q9UKS7 whole entry): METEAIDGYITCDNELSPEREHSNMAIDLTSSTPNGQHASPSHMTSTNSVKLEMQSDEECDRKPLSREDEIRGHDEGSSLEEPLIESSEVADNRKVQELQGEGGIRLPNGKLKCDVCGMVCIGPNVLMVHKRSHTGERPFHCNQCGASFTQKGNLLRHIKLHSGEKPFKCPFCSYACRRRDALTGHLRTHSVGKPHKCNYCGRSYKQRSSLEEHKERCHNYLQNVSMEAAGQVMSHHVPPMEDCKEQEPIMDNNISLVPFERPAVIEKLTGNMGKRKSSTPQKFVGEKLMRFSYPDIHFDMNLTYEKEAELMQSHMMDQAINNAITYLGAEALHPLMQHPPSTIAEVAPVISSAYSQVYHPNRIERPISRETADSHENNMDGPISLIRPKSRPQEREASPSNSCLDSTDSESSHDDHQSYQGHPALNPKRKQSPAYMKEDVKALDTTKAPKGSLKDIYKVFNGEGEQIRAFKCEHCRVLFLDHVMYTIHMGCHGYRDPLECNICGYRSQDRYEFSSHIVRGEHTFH
T1 sequence (Q96SW2 whole entry): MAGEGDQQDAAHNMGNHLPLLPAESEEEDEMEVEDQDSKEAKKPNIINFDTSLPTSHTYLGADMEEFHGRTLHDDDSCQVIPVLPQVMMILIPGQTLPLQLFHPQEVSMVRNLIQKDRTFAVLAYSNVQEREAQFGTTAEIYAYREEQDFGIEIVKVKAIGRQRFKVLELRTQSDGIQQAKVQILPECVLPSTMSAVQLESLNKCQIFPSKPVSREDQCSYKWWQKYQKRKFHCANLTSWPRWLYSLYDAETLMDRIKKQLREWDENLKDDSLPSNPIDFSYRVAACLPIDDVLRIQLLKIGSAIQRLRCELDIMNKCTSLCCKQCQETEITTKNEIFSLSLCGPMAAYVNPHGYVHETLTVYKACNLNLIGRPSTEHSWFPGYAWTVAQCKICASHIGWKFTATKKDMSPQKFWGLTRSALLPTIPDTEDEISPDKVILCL
T1 sequence (Q16531 whole entry partner): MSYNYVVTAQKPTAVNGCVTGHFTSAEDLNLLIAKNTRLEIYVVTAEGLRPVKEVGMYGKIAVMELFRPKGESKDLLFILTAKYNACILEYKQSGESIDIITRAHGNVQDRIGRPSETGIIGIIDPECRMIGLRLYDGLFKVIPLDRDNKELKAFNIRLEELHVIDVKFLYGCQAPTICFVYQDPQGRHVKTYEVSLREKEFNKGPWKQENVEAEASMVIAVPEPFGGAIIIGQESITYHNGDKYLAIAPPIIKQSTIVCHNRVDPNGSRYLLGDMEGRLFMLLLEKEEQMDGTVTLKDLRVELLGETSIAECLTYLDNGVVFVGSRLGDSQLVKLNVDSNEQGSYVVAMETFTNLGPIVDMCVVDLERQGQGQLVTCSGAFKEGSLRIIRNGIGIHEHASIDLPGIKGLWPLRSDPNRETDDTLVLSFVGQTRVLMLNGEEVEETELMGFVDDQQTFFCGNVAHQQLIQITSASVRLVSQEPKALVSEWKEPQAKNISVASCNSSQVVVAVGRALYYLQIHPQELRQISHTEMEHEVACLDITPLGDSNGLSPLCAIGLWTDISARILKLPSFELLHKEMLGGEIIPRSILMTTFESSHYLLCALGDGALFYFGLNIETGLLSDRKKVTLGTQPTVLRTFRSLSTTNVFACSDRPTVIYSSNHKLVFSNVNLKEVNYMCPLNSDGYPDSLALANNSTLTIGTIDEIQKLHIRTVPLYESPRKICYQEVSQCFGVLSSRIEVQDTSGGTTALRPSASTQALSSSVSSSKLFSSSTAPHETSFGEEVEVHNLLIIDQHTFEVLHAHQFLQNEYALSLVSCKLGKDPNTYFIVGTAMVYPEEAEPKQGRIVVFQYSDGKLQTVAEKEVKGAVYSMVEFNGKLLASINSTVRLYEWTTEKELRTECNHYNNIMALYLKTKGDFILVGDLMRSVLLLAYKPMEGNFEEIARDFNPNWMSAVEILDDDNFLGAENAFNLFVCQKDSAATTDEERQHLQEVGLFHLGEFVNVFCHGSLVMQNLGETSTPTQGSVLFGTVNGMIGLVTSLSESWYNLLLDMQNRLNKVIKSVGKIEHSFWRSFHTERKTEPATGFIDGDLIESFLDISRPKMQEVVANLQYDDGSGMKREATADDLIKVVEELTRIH
Outline: (§1)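 Compounds were tested at 50 nM and 500 nM on hPBMCs (1×10^6 cells/mL) for 24 h, alongside DMSO. Proteins were detected by Western blot after denaturation at 95 °C; remaining protein computed from normalised band grayscale.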

IKZF1 = biological target: T2, IKZF1 (Homo sapiens, UniProt Q13422+Q96SW2); test: Western blot degradation of IKZF1 in hPBMCs (24 h)
T2 construct: The supernatant was aspirated as the extracted total cell protein; endogenous in cells; host or cells: human peripheral blood mononuclear cells (hPBMCs)
T2 sequence (Q13422 whole entry): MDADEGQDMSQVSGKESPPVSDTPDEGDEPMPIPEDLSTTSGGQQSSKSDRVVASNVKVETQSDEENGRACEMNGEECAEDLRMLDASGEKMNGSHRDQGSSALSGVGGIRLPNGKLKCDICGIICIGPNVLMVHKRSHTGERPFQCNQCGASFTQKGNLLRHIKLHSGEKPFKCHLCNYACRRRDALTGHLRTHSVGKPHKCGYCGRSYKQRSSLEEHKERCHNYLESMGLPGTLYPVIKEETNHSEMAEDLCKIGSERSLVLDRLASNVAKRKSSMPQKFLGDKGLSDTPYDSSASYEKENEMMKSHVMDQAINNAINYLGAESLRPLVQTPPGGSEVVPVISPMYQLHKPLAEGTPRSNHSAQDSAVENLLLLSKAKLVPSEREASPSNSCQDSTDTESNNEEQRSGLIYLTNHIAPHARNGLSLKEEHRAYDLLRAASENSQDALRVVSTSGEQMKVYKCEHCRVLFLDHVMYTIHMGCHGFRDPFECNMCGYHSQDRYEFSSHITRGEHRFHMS
T2 sequence (Q96SW2 whole entry): as the sequence (Q96SW2 whole entry) above
T2 sequence (Q16531 whole entry partner): as the sequence (Q16531 whole entry partner) above
Outline: as §1

GSPT1 = biological target: T3, GSPT1 (Homo sapiens, UniProt P15170+Q96SW2); test: Western blot degradation of GSPT1 in hPBMCs (24 h)
T3 construct: The supernatant was aspirated as the extracted total cell protein; endogenous in cells; host or cells: human peripheral blood mononuclear cells (hPBMCs)
T3 sequence (P15170 whole entry): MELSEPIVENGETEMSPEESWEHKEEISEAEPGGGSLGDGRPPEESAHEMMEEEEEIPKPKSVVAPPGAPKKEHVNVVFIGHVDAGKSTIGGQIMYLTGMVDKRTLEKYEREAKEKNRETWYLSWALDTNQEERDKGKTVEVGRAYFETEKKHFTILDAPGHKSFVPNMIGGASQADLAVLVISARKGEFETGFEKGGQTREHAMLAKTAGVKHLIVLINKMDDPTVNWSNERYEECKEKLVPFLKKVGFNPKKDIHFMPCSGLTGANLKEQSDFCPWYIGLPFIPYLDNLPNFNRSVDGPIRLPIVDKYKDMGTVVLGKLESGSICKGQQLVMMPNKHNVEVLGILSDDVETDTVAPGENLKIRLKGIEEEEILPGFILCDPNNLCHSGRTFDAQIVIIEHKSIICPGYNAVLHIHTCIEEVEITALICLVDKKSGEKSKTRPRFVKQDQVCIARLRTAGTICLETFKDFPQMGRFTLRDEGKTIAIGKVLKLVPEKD
T3 sequence (Q96SW2 whole entry): as the sequence (Q96SW2 whole entry) above
T3 sequence (Q16531 whole entry partner): as the sequence (Q16531 whole entry partner) above
Outline: as §1

CK1α = biological target: T4, CK1α (Homo sapiens, UniProt P48729+Q96SW2); test: Western blot degradation of CK1α in hPBMCs (24 h)
T4 construct: The supernatant was aspirated as the extracted total cell protein; endogenous in cells; host or cells: human peripheral blood mononuclear cells (hPBMCs)
T4 sequence (P48729 whole entry): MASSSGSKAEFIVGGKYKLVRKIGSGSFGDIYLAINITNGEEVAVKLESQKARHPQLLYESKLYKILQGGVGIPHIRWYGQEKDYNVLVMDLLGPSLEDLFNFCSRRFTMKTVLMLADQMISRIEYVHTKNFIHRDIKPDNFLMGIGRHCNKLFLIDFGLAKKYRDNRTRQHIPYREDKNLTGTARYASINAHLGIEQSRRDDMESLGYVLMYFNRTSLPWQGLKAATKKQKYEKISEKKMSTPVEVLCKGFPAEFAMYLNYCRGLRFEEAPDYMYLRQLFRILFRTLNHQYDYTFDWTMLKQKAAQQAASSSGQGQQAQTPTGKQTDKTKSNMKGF
T4 sequence (Q96SW2 whole entry): as the sequence (Q96SW2 whole entry) above
T4 sequence (Q16531 whole entry partner): as the sequence (Q16531 whole entry partner) above
Outline: as §1

WEE1 = biological target: T5, WEE1 (Homo sapiens, UniProt P30291+Q96SW2); test: Western blot degradation of WEE1 in hPBMCs (24 h)
T5 construct: The supernatant was aspirated as the extracted total cell protein; endogenous in cells; host or cells: human peripheral blood mononuclear cells (hPBMCs)
T5 sequence (P30291 whole entry): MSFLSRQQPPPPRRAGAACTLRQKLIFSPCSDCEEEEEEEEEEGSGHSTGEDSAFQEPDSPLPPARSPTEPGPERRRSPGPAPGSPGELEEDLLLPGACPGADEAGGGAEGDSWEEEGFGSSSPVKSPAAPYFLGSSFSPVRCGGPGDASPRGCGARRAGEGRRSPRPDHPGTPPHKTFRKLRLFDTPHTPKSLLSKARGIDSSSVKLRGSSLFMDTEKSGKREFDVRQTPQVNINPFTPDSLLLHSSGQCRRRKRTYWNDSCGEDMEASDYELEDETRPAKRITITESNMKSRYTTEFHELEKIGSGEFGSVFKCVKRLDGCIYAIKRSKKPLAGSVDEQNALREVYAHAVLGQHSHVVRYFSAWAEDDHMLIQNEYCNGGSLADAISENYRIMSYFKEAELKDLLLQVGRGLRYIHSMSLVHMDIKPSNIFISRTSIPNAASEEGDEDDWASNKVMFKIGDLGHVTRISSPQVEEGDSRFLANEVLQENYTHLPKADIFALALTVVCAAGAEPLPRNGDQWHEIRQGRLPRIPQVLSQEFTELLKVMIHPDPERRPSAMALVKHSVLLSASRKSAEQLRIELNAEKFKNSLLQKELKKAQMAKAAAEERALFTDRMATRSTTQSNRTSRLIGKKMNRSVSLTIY
T5 sequence (Q96SW2 whole entry): as the sequence (Q96SW2 whole entry) above
T5 sequence (Q16531 whole entry partner): as the sequence (Q16531 whole entry partner) above
Outline: as §1

IKZF3 = biological target: T6, IKZF3 (Homo sapiens, UniProt Q96SW2+Q9UKT9); test: Western blot degradation of IKZF3 in hPBMCs (24 h)
T6 construct: The supernatant was aspirated as the extracted total cell protein; endogenous in cells; host or cells: human peripheral blood mononuclear cells (hPBMCs)
Outline: as §1

| Structure (SMILES) | IKZF2 substrate protein remaining % (IKZF2) | IKZF1 substrate protein remaining % (IKZF1) | GSPT1 substrate protein remaining % (GSPT1) | CK1α substrate protein remaining % (CK1α) | WEE1 substrate protein remaining % (WEE1) | IKZF3 substrate protein remaining % (IKZF3) |
| --- | --- | --- | --- | --- | --- | --- |
| O=C1CCN(N2C(=O)c3ccc(CN4CC(c5ccnc6cc(F)ccc56)C4)cc3C2=O)C(=O)N1 [GT-07718, 2-(2,4-dioxotetrahydropyrimidin-1(2H)-yl)-5-((3-(7-fluoroquinolin-4-yl)azetidin-1-yl)methyl)isoindoline-1,3-dione] | B (80%< substrate protein remaining % ≤100%) | B (80%< substrate protein remaining % ≤100%) | A (0% ≤ substrate protein remaining % ≤80%) | A (0% ≤ substrate protein remaining % ≤80%) | B (80%< substrate protein remaining % ≤100%) | A (0% ≤ substrate protein remaining % ≤80%) |
| O=C1CCN(N2Cc3cc(CN4CCn5c(nnc5C(F)(F)F)C4)ccc3C2=O)C(=O)N1 [GT-07719, 1-(1-oxo-5-((3-(trifluoromethyl)-5,6-dihydro-[1,2,4]triazolo[4,3-a]pyrazin-7 (8H)-yl)methyl)isoindolin-2-yl)dihydropyrimidine-2,4(1H,3H)-dione] | A (0% ≤ substrate protein remaining % ≤80%) | B (80%< substrate protein remaining % ≤100%) | A (0% ≤ substrate protein remaining % ≤80%) | A (0% ≤ substrate protein remaining % ≤80%) | B (80%< substrate protein remaining % ≤100%) | A (0% ≤ substrate protein remaining % ≤80%) |
| O=C1CCN(N2Cc3cc(CN4CCc5sccc5C4)ccc3C2=O)C(=O)N1 [GT-07720, 1-(5-((6,7-dihydrothieno[3,2-c]pyridin-5 (4H)-yl)methyl)-1-oxoisoindolin-2-yl)dihydropyrimidine-2,4(1H,3H)-dione] | A (0% ≤ substrate protein remaining % ≤80%) | A (0% ≤ substrate protein remaining % ≤80%) | A (0% ≤ substrate protein remaining % ≤80%) | A (0% ≤ substrate protein remaining % ≤80%) | A (0% ≤ substrate protein remaining % ≤80%) | A (0% ≤ substrate protein remaining % ≤80%) |
| O=C1CCN(N2Cc3cc(CN4CCN(Cc5ccc(C67CC8CC(CC(C8)C6)C7)cc5)CC4)ccc3C2=O)C(=O)N1 [GT-07721, 1-(5-((4-(4-((3r,5r,7r)-adamantan-1-yl)benzyl)piperazin-1-yl)methyl)-1-oxoisoindolin-2-yl)dihydropyrimidine-2,4(1H,3H)-dione] | A (0% ≤ substrate protein remaining % ≤80%) | A (0% ≤ substrate protein remaining % ≤80%) | A (0% ≤ substrate protein remaining % ≤80%) | A (0% ≤ substrate protein remaining % ≤80%) | A (0% ≤ substrate protein remaining % ≤80%) | A (0% ≤ substrate protein remaining % ≤80%) |
| O=C1CCN(N2C(=O)c3ccc(CN4CCN(Cc5ccc(C67CC8CC(CC(C8)C6)C7)cc5)CC4)cc3C2=O)C(=O)N1 [GT-07722, 5-((4-(4-((3r,5r,7r)-adamantan-1-yl)benzyl)piperazin-1-yl)methyl)-2-(2,4-dioxotetrahydropyrimidin-1(2H)-yl)isoindoline-1,3-dione] | A (0% ≤ substrate protein remaining % ≤80%) | B (80%< substrate protein remaining % ≤100%) | A (0% ≤ substrate protein remaining % ≤80%) | A (0% ≤ substrate protein remaining % ≤80%) | A (0% ≤ substrate protein remaining % ≤80%) | A (0% ≤ substrate protein remaining % ≤80%) |
| O=C1CCN(N2Cc3cc(CNC45CC6CC(CC(O)(C6)C4)C5)ccc3C2=O)C(=O)N1 [GT-07784, 1-(5-((((1r,3s,5R,7S)-3-hydroxyadamantan-1-yl)amino)methyl)-1-oxoisoindolin-2-yl)dihydropyrimidine-2,4(1H,3H)-dione] | A (0% ≤ substrate protein remaining % ≤80%) | B (80%< substrate protein remaining % ≤100%) | B (80%< substrate protein remaining % ≤100%) | B (80%< substrate protein remaining % ≤100%) | B (80%< substrate protein remaining % ≤100%) | B (80%< substrate protein remaining % ≤100%) |
| O=C1CCN(N2C(=O)c3ccc(CNC45CC6CC(CC(O)(C6)C4)C5)cc3C2=O)C(=O)N1 [GT-07786, 2-(2,4-dioxotetrahydropyrimidin-1(2H)-yl)-5-((((1r,3s,5R,7S)-3-hydroxyadamantan-1-yl)amino)methyl)isoindoline-1,3-dione] | B (80%< substrate protein remaining % ≤100%) | B (80%< substrate protein remaining % ≤100%) | A (0% ≤ substrate protein remaining % ≤80%) | B (80%< substrate protein remaining % ≤100%) | B (80%< substrate protein remaining % ≤100%) | B (80%< substrate protein remaining % ≤100%) |
| NCc1ccc2c(c1)C(=O)N(N1CCC(=O)NC1=O)C2=O [GT-07968, 5-(aminomethyl)-2-(2,4-dioxotetrahydropyrimidin-1(2H)-yl)isoindoline-1,3-dione] | A (0% ≤ substrate protein remaining % ≤80%) | A (0% ≤ substrate protein remaining % ≤80%) | B (80%< substrate protein remaining % ≤100%) | A (0% ≤ substrate protein remaining % ≤80%) | A (0% ≤ substrate protein remaining % ≤80%) | A (0% ≤ substrate protein remaining % ≤80%) |
| O=C1CCN(N2Cc3cc(CN4CC=C(c5cccc(Cl)c5Cl)CC4)ccc3C2=O)C(=O)N1 [GT-08054, 1-(5-((4-(2,3-dichlorophenyl)-3,6-dihydropyridin-1(2H)-yl)methyl)-1-oxoisoindolin-2-yl)dihydropyrimidine-2,4(1H,3H)-dione] | A (0% ≤ substrate protein remaining % ≤80%) | A (0% ≤ substrate protein remaining % ≤80%) | A (0% ≤ substrate protein remaining % ≤80%) | A (0% ≤ substrate protein remaining % ≤80%) | A (0% ≤ substrate protein remaining % ≤80%) | A (0% ≤ substrate protein remaining % ≤80%) |
| O=C1CCN(N2Cc3cc(CN4CC=C(c5cccc(F)c5Cl)CC4)ccc3C2=O)C(=O)N1 [GT-08055, 1-(5-((4-(2-chloro-3-fluorophenyl)-3,6-dihydropyridin-1(2H)-yl)methyl)-1-oxoisoindolin-2-yl)dihydropyrimidine-2,4(1H,3H)-dione] | A (0% ≤ substrate protein remaining % ≤80%) | A (0% ≤ substrate protein remaining % ≤80%) | A (0% ≤ substrate protein remaining % ≤80%) | A (0% ≤ substrate protein remaining % ≤80%) | A (0% ≤ substrate protein remaining % ≤80%) | A (0% ≤ substrate protein remaining % ≤80%) |
| O=C1CCN(N2Cc3cc(CN4CCN(c5ncnc6sccc56)CC4)ccc3C2=O)C(=O)N1 [GT-08057, 1-(1-oxo-5-((4-(thieno[2,3-d]pyrimidin-4-yl)piperazin-1-yl)methyl)isoindolin-2-yl)dihydropyrimidine-2,4(1H,3H)-dione] | B (80%< substrate protein remaining % ≤100%) | A (0% ≤ substrate protein remaining % ≤80%) | A (0% ≤ substrate protein remaining % ≤80%) | B (80%< substrate protein remaining % ≤100%) | B (80%< substrate protein remaining % ≤100%) | B (80%< substrate protein remaining % ≤100%) |
| Cc1csc2ncnc(N3CCN(Cc4ccc5c(c4)CN(N4CCC(=O)NC4=O)C5=O)CC3)c12 [GT-08058, 1-(5-((4-(5-methylthieno[2,3-d]pyrimidin-4-yl)piperazin-1-yl)methyl)-1-oxoisoindolin-2-yl)dihydropyrimidine-2,4(1H,3H)-dione] | B (80%< substrate protein remaining % ≤100%) | A (0% ≤ substrate protein remaining % ≤80%) | B (80%< substrate protein remaining % ≤100%) | B (80%< substrate protein remaining % ≤100%) | B (80%< substrate protein remaining % ≤100%) | B (80%< substrate protein remaining % ≤100%) |
| Cc1cc2c(N3CCN(Cc4ccc5c(c4)CN(N4CCC(=O)NC4=O)C5=O)CC3)ncnc2s1 [GT-08059, 1-(5-((4-(6-methylthieno[2,3-d]pyrimidin-4-yl)piperazin-1-yl)methyl)-1-oxoisoindolin-2-yl)dihydropyrimidine-2,4(1H,3H)-dione] | B (80%< substrate protein remaining % ≤100%) | B (80%< substrate protein remaining % ≤100%) | B (80%< substrate protein remaining % ≤100%) | B (80%< substrate protein remaining % ≤100%) | B (80%< substrate protein remaining % ≤100%) | A (0% ≤ substrate protein remaining % ≤80%) |
